In ChEMBL document CHEMBL3046626, “Antifungal chalcones and new caffeic acid esters from Zuccagnia punctata acting against soybean infecting fungi” (2004):
≈ marks a conversion by molar mass, not a printed value.

Key:
Type in all cases: functional
Macrophomina phaseolina = assay: Antifungal activity against Macrophomina phaseolina isolate CE173 after 48 to 72 hr
Colletotrichum truncatum = assay: Antifungal activity against Colletotrichum truncatum CE175 after 48 to 72 hr
Alternaria alternata = assay: Antifungal activity against Alternaria alternata (CE172) after 48 to 72 hr
Fusarium equiseti = assay: Antifungal activity against Fusarium equiseti (CE181) after 48 to 72 hr
Diaporthe longicolla = assay: Antifungal activity against Diaporthe longicolla CE117 after 48 to 72 hr
Fusarium graminearum [1] = assay: microbe, parasite or virus in culture; settings: isolate CE171
Fusarium graminearum [2] = assay: microbe, parasite or virus in culture; settings: isolate CE135
Fusarium graminearum [3] = assay: microbe, parasite or virus in culture; settings: isolate CE170
Fusarium graminearum [4] = assay: microbe, parasite or virus in culture; settings: isolate CE169

Which MIC (Macrophomina phaseolina) does the source give for `COC(=O)Nc1nc2ccccc2[nH]1` [CARBENDAZIM] here?
Its MIC is 0.25 µg/mL (≈ 1.31 µM).

And the MIC (Colletotrichum truncatum)?
Its MIC is 0.01 µg/mL (≈ 0.0523 µM).

And the MIC (Alternaria alternata)?
The MIC was 75 µg/mL (≈ 392 µM).

And the MIC (Fusarium equiseti)?
Its MIC is 0.75 µg/mL (≈ 3.92 µM).

What about the MIC (Diaporthe longicolla) of the same compound?
The MIC was 0.01 µg/mL (≈ 0.0523 µM).

What about the MIC (Fusarium graminearum [1]) of the same compound?
The MIC was 0.4 µg/mL (≈ 2.09 µM).

And the MIC (Fusarium graminearum [2])?
The MIC was 0.75 µg/mL (≈ 3.92 µM).

What about the MIC (Fusarium graminearum [3]) of the same compound?
The MIC was 0.75 µg/mL (≈ 3.92 µM).

Which MIC (Macrophomina phaseolina) does the source give for `COC(=O)N(OC)c1ccccc1COc1ccn(-c2ccc(Cl)cc2)n1` [PYRACLOSTROBIN] here?
Its MIC is 2.5 µg/mL (≈ 6.45 µM).

What about the MIC (Colletotrichum truncatum) of the same compound?
Its MIC is 0.04 µg/mL (≈ 0.103 µM).

What about the MIC (Alternaria alternata) of the same compound?
Its MIC is 0.4 µg/mL (≈ 1.03 µM).

What about the MIC (Fusarium equiseti) of the same compound?
Its MIC is 12.5 µg/mL (≈ 32.2 µM).

And the MIC (Diaporthe longicolla)?
Its MIC is 0.01 µg/mL (≈ 0.0258 µM).

And the MIC (Fusarium graminearum [4])?
Its MIC is 20 µg/mL (≈ 51.6 µM).

What about the MIC (Fusarium graminearum [1]) of the same compound?
Its MIC is 0.05 µg/mL (≈ 0.129 µM).

And the MIC (Fusarium graminearum [2])?
The MIC was 1 µg/mL (≈ 2.58 µM).

What about the MIC (Fusarium graminearum [3]) of the same compound?
Its MIC is 0.05 µg/mL (≈ 0.129 µM).

How did the MIC (Macrophomina phaseolina) turn out when `COc1c(O)ccc(C(=O)/C=C/c2ccccc2)c1O` [LARREIN] was run?
Its MIC is 50 µg/mL (≈ 185 µM).

And the MIC (Colletotrichum truncatum)?
Its MIC is 6.25 µg/mL (≈ 23.1 µM).

And the MIC (Alternaria alternata)?
Its MIC is 25 µg/mL (≈ 92.5 µM).

And the MIC (Fusarium equiseti)?
The MIC was 25 µg/mL (≈ 92.5 µM).

And the MIC (Diaporthe longicolla)?
The MIC was 6.25 µg/mL (≈ 23.1 µM).

And the MIC (Fusarium graminearum [4])?
The MIC was 12.5 µg/mL (≈ 46.2 µM).

And the MIC (Fusarium graminearum [1])?
Its MIC is 12.5 µg/mL (≈ 46.2 µM).

What about the MIC (Fusarium graminearum [2]) of the same compound?
Its MIC is 12.5 µg/mL (≈ 46.2 µM).

What about the MIC (Fusarium graminearum [3]) of the same compound?
Its MIC is 25 µg/mL (≈ 92.5 µM).

With `CO/C=C(/C(=O)OC)c1ccccc1Oc1cc(Oc2ccccc2C#N)ncn1` [AZOXYSTROBIN] as the compound, how does the MIC (Macrophomina phaseolina) read?
The MIC was 2.5 µg/mL (≈ 6.2 µM).

What about the MIC (Colletotrichum truncatum) of the same compound?
Its MIC is 0.05 µg/mL (≈ 0.124 µM).

And the MIC (Alternaria alternata)?
Its MIC is 2.5 µg/mL (≈ 6.2 µM).

What about the MIC (Fusarium equiseti) of the same compound?
The MIC was 12.5 µg/mL (≈ 31 µM).

What about the MIC (Diaporthe longicolla) of the same compound?
Its MIC is 0.05 µg/mL (≈ 0.124 µM).

And the MIC (Fusarium graminearum [4])?
The MIC was 7.5 µg/mL (≈ 18.6 µM).

What about the MIC (Fusarium graminearum [1]) of the same compound?
The MIC was 0.4 µg/mL (≈ 0.992 µM).

What about the MIC (Fusarium graminearum [2]) of the same compound?
Its MIC is 5 µg/mL (≈ 12.4 µM).

What about the MIC (Fusarium graminearum [3]) of the same compound?
The MIC was 0.25 µg/mL (≈ 0.62 µM).

What does the source list for `CC(=O)N1CCN(c2ccc(OCC3COC(Cn4ccnc4)(c4ccc(Cl)cc4Cl)O3)cc2)CC1` (stereo unspecified) [KETOCONAZOLE]?
MIC (Macrophomina phaseolina): 50 µg/mL (≈ 94.1 µM); MIC (Colletotrichum truncatum): 1.5 µg/mL (≈ 2.82 µM); MIC (Alternaria alternata): 5 µg/mL (≈ 9.41 µM); MIC (Fusarium equiseti): 50 µg/mL (≈ 94.1 µM); MIC (Diaporthe longicolla): 0.5 µg/mL (≈ 0.941 µM); MIC (Fusarium graminearum [4]): 40 µg/mL (≈ 75.3 µM); MIC (Fusarium graminearum [1]): 40 µg/mL (≈ 75.3 µM); MIC (Fusarium graminearum [2]): 40 µg/mL (≈ 75.3 µM); MIC (Fusarium graminearum [3]): 40 µg/mL (≈ 75.3 µM)

How did the MIC (Macrophomina phaseolina) turn out when `CC(CCc1ccc(O)c(O)c1)OC(=O)/C=C/c1ccc(O)c(O)c1` (stereo unspecified) was run?
Its MIC is > 50 µg/mL.

What about the MIC (Colletotrichum truncatum) of the same compound?
Its MIC is > 50 µg/mL.

What about the MIC (Alternaria alternata) of the same compound?
The MIC was > 50 µg/mL.

And the MIC (Fusarium equiseti)?
The MIC was > 50 µg/mL.

What about the MIC (Diaporthe longicolla) of the same compound?
The MIC was > 50 µg/mL.

What about the MIC (Fusarium graminearum [4]) of the same compound?
Its MIC is > 50 µg/mL.

And the MIC (Fusarium graminearum [1])?
The MIC was > 50 µg/mL.

What about the MIC (Fusarium graminearum [2]) of the same compound?
Its MIC is > 50 µg/mL.

And the MIC (Fusarium graminearum [3])?
Its MIC is > 50 µg/mL.

Which results are given for `CC(CCc1ccc(O)cc1)OC(=O)/C=C/c1ccc(O)c(O)c1` (stereo unspecified)?
MIC (Macrophomina phaseolina): > 50 µg/mL; MIC (Colletotrichum truncatum): > 50 µg/mL; MIC (Alternaria alternata): > 50 µg/mL; MIC (Fusarium equiseti): > 50 µg/mL; MIC (Diaporthe longicolla): 6.25 µg/mL (≈ 19 µM); MIC (Fusarium graminearum [4]): > 50 µg/mL; MIC (Fusarium graminearum [1]): > 50 µg/mL; MIC (Fusarium graminearum [2]): > 50 µg/mL; MIC (Fusarium graminearum [3]): > 50 µg/mL

For `O=C(/C=C/c1ccccc1)c1ccc(O)cc1O` [2',4'-DIHYDROXYCHALCONE], which MIC (Macrophomina phaseolina) is on record?
The MIC was 50 µg/mL (≈ 208 µM).

And the MIC (Colletotrichum truncatum)?
The MIC was 6.25 µg/mL (≈ 26 µM).

And the MIC (Alternaria alternata)?
The MIC was 25 µg/mL (≈ 104 µM).

What about the MIC (Fusarium equiseti) of the same compound?
Its MIC is 25 µg/mL (≈ 104 µM).

And the MIC (Diaporthe longicolla)?
The MIC was 3.12 µg/mL (≈ 13 µM).

What about the MIC (Fusarium graminearum [4]) of the same compound?
The MIC was 25 µg/mL (≈ 104 µM).

What about the MIC (Fusarium graminearum [1]) of the same compound?
Its MIC is 25 µg/mL (≈ 104 µM).

What about the MIC (Fusarium graminearum [2]) of the same compound?
The MIC was 25 µg/mL (≈ 104 µM).

And the MIC (Fusarium graminearum [3])?
Its MIC is 25 µg/mL (≈ 104 µM).
